The values that follow come from patent publication US8614222B2, “Methods of preventing and treating low bone mass diseases” (The Trustees of Columbia University in the City of New York, priority 2008, dated 2013).

Common to all, as to type: in vivo
In one experiment the test system is brain serotonin. The experiment in a line: Brain serotonin content in wild-type mice (HPLC). Particulars: WT mice, 250 mg/kg orally. The protocol:
FIG. 15. HPLC analysis of serotonin content in the brain of wild-type mice that received vehicle or LP-533,401 (250 mg/kg, orally) for 1 day.
(§1) Blood samples were collected from mice and rats through cardiac puncture under isoflurane anesthesia, kept on ice for 5 min, and centrifuged at 13,000 rpm for 10 min at 4° C. Serum samples were stored at −80° C. until hormonal analyses were performed. Serum serotonin levels were quantified by ELISA (Serotonin kit, Fitzgerald) while serotonin levels in brain regions were quantified by HPLC as described previously (Mann et al., 1992, Arch. Gen. Psychiatry 49:442-446). Serum levels of total deoxypyridinoline (DPD) cross-links was measured using the Merta tDPD kit (Quidel corp. Sandiago, Calif.) and Osteocalcin using Rat and Mouse Ocn IRMA kit.

The test system of the next experiment is ovariectomized mice. The experiment in a line: Bone histomorphometry in ovariectomized mice, preventive and curative regimen. The protocol: Six-week-old wild-type virgin female mice were purchased from the Jackson Laboratories and subjected to either bilateral ovariectomy or a sham operation after a few days of acclimatization to the animal facility post-arrival. Ovariectomy was performed under isofluorane anesthesia through dorsal, subrenal incision. In the first experiment, mice were treated from day 1 post-ovariectomy for 4 weeks with LP-533,401 (1, 10, 100 or 250 mg/kg/day) or vehicle. In the second experiment, mice were treated for 4 weeks from 2 to 6-weeks post-ovariectomy with LP-533,401 (250 mg/kg/day) or vehicle. […] LP-533,401 was dissolved in polyethylene glycol:5% dextrose (40:60) and given daily by gavage at the doses indicated. Animals were observed daily for any behavioral abnormalities. Mice were sacrificed at the end of the experimental regimen and processed for the skeletal and physiological analysis.
(§2) Bone histomorphometry was performed as previously described (Duey et al., 2000, Cell 100:197-207; Takeda et al., 2002, Cell 111:305-317; Parfitt et al., 1987, J. Bone Miner. Res. 2:595-610). Briefly, lumbar vertebrae were dissected, fixed for 24 hr in 10% formalin, dehydrated in graded ethanol series, and embedded in methyl methacrylate resin according to standard protocols (Parfitt et al., 1987, J. Bone Miner. Res. 2:595-610). Von Kossa/Von Gieson staining was performed using 7 μm sections for bone volume over tissue volume (BV/TV) measurement. Bone formation rate (BFR) was analyzed by the calcein double-labeling method (Ducy et al., 2000, Cell 100:197-207). Calcein (Sigma Chemical Co., St. Louis, Mo.) was dissolved in calcein buffer (0.15 M NaCl, 2% NaHCO3) and injected twice at 0.125 mg/g body weight on day 1 and 4, and then mice were killed on day 6. Unstained 4 μm sections were used for bone formation rate (BFR) measurements. For the analysis of parameters of osteoblasts and osteoclasts, 4 μm sections were stained with toluidine blue and tartrate-resistant acid phosphatase (TRAP), respectively (2). Histomorphometric analyses were performed using the Osteomeasure Analysis System (Osteometrics, Atlanta, Ga.).
as §1

In another experiment the test system is ovariectomized rats. Put plainly: Curative regimen in ovariectomized rats (histomorphometry, μCT, biomechanical testing). Particulars: OVX rats. How it is done:
Virgin female Sprague-Dawley rats (National Institute of Nutrition, Hyderabad, India) were obtained at 3 months of age and allowed to acclimate to the facility for 1 week before study initiation and surgical procedures. They were housed under a 12 hour:12 hour light:dark cycle and provided throughout the study with water and PMI (Purina Mills, Incorporated) Certified Rodent Laboratory Chow. Rats were subjected to either bilateral ovariectomy or a sham operation under isoflurane anesthesia. […] The rats were divided into two groups of sham-operated and ovariectomized animals and left untreated for 3 weeks to allow bone loss to occur. One group of sham and one group of ovariectomized rats (n=10/group) were killed as baseline controls to determine bone loss before the start of LP-533,401 or PTH administration. The remaining animals (n=5-10/group) received vehicle or LP-533,401 (250 mg/kg/day) by gavage, or recombinant human PTH (80 ug/kg) by daily subcutaneous (s.c.) injection for 4 weeks. The 80 ug/kg dose of PTH was selected as being optimal for reversal of ovariectomy-induced bone loss in rats based on previous studies, while the dose of LP-533,401 was selected based on the effective dose for bone loss-reversal observed in mice experiments. To label bone-forming surfaces, animals were injected s.c. with calcein (8 mg/kg) at 10 and 3 days before death. Animals were killed by an overdose of Isofluorane anesthesia. The right tibia and lumbar vertebra 2 (L2) were collected, cleaned of excess soft tissue, fixed overnight in 10% formalin and processed for μCT or histomorphometric analysis. The right femur and L3 were cleaned of excess tissue and stored at −20° C. prior to biomechanical testing.
as §2
Trabecular bone architecture of proximal tibia was assessed using a micro computed tomography (μCT) system (VivaCT 40, SCANCO Medical AG, Bassersdorf, Switzerland). Tibia bone specimen was stabilized with gauze in a 2 ml centrifuge tube filled with 70% ethanol and fastened in the specimen holder of the μCT scanner. One hundred μCT slices, corresponding to a 1.05 mm region distal from the growth plate, were acquired at an isotropic spatial resolution of 10.5 μm. A global thresholding technique was applied to binarize gray-scale μCT images where the minimum between the bone and bone marrow peaks in the voxel gray value histogram was chosen as the threshold value. The trabecular bone compartment was segmented by a semi-automatic contouring method and subjected to a model-independent morphological analysis (Hildebrand et al., 1999, J. Bone Miner. Res. 14:1167-1174) by the standard software provided by the manufacture of the μCT scanner. […]

Setting [1] is: OVX mice, 250 mg/kg/day for 4 weeks from week 2 post-ovariectomy.
Setting [2] is: OVX mice, day 1 to 28 post-ovariectomy.
Where [3] appears, read: long bones, μCT, all doses tested.
The mark [4] stands for this setting: LP-533,401 250 mg/kg/day, PTH 80 μg/kg/day.

Consider `Nc1nc(OC(c2ccc(-c3cccc(F)c3)cc2)C(F)(F)F)cc(-c2ccc(C[C@H](N)C(=O)O)cc2)n1` (stereo partly drawn) [LP-533401, (2S)-2-amino-3-(4-(2-amino-6-(2,2,2-trifluoro-1-(3′-fluorobiphenyl-4-yl)ethoxy)pyrimidin-4-yl)phenyl)propanoic acid], for which, in the experiment on brain serotonin, the brain serotonin content entry is listed as “no change”. Moreover, the “bone mass versus sham-operated mice” value in the experiment on ovariectomized mice (OVX mice, 25 mg/kg/day for 6 weeks from week 6 post-ovariectomy) is “similar”. In the experiment with ovariectomized mice (setting [1]), the bone mass result was “normalized” and the bone resorption parameters result is listed as “increased”. The “bone mass versus sham-operated mice” value with ovariectomized mice (OVX mice, 100 or 250 mg/kg/day for 6 weeks from week 6 post-ovariectomy) was “significantly higher”. Also, in the experiment on ovariectomized mice (OVX mice, 250, 100 or 10 mg/kg once daily, day 1 to 28 post-ovariectomy), the “bone mass versus vehicle-treated ovariectomized mice” value is listed as “higher”. In the experiment with ovariectomized mice (setting [2]), the “Cyclin D1 expression in the bones” value is reported as “increase”, the bone formation rate result is listed as “major increase”, the osteoblast numbers result is listed as “major increase” and the osteocalcin serum levels entry is “major increase”. Moreover, in the experiment with ovariectomized rats, the “number of osteoclasts per bone surface (OcS/BS) versus untreated ovariectomized rats” value was “similar”. In addition, the “ovariectomy-induced bone loss, histomorphometric analysis of vertebra” value in the experiment with ovariectomized rats (given 3 or 12 weeks post-ovariectomy for 4 weeks, even at 25 mg/kg/day) was “fully rescued”. In addition, in the experiment with ovariectomized rats (long bones, μCT), the “efficiency compared with PTH (80 μg/kg/day, s.c.)” value is “as efficient as the PTH regimen”. Also, in the experiment with ovariectomized rats (setting [3]), the “trabecular spacing (Tb.Sp*)” value is recorded as “reduced” and the “trabecular thickness (Tb.Th*)” value is recorded as “significantly increased”. Besides, in the experiment with ovariectomized rats (long bones, μCT, all doses tested (25, 100, 250 mg/kg/day)), the “trabecular number (Tb.N*)” value is reported as “significantly increased”. Besides, in the experiment with ovariectomized rats (vertebra), the bone formation rate entry was “significant increase” and the osteoblast number result was “significant increase”. Also, the “bone mass in long bones versus vehicle-treated controls” value in the experiment with ovariectomized rats (μCT) is “increasing, in a dose-dependent manner”. In the experiment on ovariectomized rats (setting [4]), the “decrease in cortical thickness at the femur mid-shaft” value is listed as “equally rescued”; the “maximal load (femur, vertebra)” value is “restored to values seen in sham-operated rats”; the “stiffness (femur, vertebra)” value was “restored to values seen in sham-operated rats”.
